PubChem BioAssay AID1745844 (Carcinogenic Potency Database (CPDB), 2022)

Tested on: rodent lifetime carcinogenesis bioassay, tumor incidence TD50
Experiment: chronic cancer bioassays in animals – CPDB, compiled studies (AID 1745844)
Settings: i.p., dosed 26 weeks, study length 78 weeks

## O[C@@H]([C@H](O)[C@H](O)CBr)[C@H](O)CBr
mouse, strain Swiss, females, site: adrenal gland, lesion: cortical adenoma
  TD50: 136 mg/kg/day
mouse, strain Swiss, females, site: all sites, lesion: lymphatic leukemia
  TD50: 89.8 mg/kg/day
mouse, strain Swiss, females, site: all sites, lesion: lymphosarcoma
  TD50: 38.4 mg/kg/day
mouse, strain Swiss, females, site: any site (literature study), lesion: benign tumor
  TD50: 130 mg/kg/day
mouse, strain Swiss, females, site: any site (literature study), lesion: malignant tumor
  TD50: 11.2 mg/kg/day
mouse, strain Swiss, females, site: any site (literature study), lesion: several types, types named in the paper
  TD50: 7.67 mg/kg/day
mouse, strain Swiss, females, site: lung, lesion: several types, types named in the paper
  TD50: 21.4 mg/kg/day
mouse, strain Swiss, females, site: subcutaneous tissue, lesion: carcinoma
  TD50: 66 mg/kg/day
mouse, strain Swiss, males, site: any site (literature study), lesion: benign tumor
  TD50: 92.8 mg/kg/day
mouse, strain Swiss, males, site: any site (literature study), lesion: malignant tumor
  TD50: 8.53 mg/kg/day
mouse, strain Swiss, males, site: any site (literature study), lesion: several types, types named in the paper
  TD50: 6.03 mg/kg/day
mouse, strain Swiss, males, site: liver, lesion: several types, types named in the paper
  TD50: 65.7 mg/kg/day
mouse, strain Swiss, males, site: lung, lesion: several types, types named in the paper
  TD50: 11.4 mg/kg/day
rat, strain Charles River CD (Sprague-Dawley), females, site: any site (literature study), lesion: malignant tumor
  TD50: 11.5 mg/kg/day
rat, strain Charles River CD (Sprague-Dawley), females, site: any site (literature study), lesion: several types, types named in the paper
  TD50: 12.5 mg/kg/day
rat, strain Charles River CD (Sprague-Dawley), females, site: lung, lesion: carcinoma
  TD50: 84.6 mg/kg/day
rat, strain Charles River CD (Sprague-Dawley), females, site: mammary gland, lesion: adenocarcinoma
  TD50: 24.9 mg/kg/day
rat, strain Charles River CD (Sprague-Dawley), females, site: peritoneum, lesion: sarcoma
  TD50: 79.2 mg/kg/day
rat, strain Charles River CD (Sprague-Dawley), males, site: any site (literature study), lesion: benign tumor
  TD50: 16.6 mg/kg/day
rat, strain Charles River CD (Sprague-Dawley), males, site: any site (literature study), lesion: several types, types named in the paper
  TD50: 7.95 mg/kg/day
rat, strain Charles River CD (Sprague-Dawley), males, site: mammary gland, lesion: fibroadenoma
  TD50: 255 mg/kg/day
rat, strain Charles River CD (Sprague-Dawley), males, site: peritoneum, lesion: sarcoma
  TD50: 30.9 mg/kg/day
rat, strain Charles River CD (Sprague-Dawley), males, site: skin, lesion: several types, types named in the paper
  TD50: 103 mg/kg/day
